# Source: patent EP0300107A1, “Ester, thioester and amide derivatives of oxolinic acid, process for their synthesis and their therapeutical use” (VETOQUINOL S.A., priority 1987, dated 1989)
# Like-named read-outs stand apart in the source and are kept apart here.
# Columns and labels:
# [1] = Plasma levels after intramuscular injection in the dog; set-up: species or system chien; settings: in vivo; for concentration at 0.5 h / concentration at 1 h / concentration at 2 h / concentration at 4 h / concentration at 6 h / concentration at 12 h / concentration at 24 h: dog, im
# Procedure: a/ Détermination des taux plasmatiques après injection par voie intramusculaire chez le chien
# Dose administrée : 15 mg/kg en équivalent acide oxolinique (Comparaison avec l'activité pharmacocinétique de l'acide oxolinique) TABLEAU III
# [2] = Plasma levels after intravenous injection in the dog; set-up: species or system chien; settings: in vivo
# Procedure: b/ Détermination des taux plasmatiques après injection intraveineuse chez le chien
# Dose administrée : 15 mg/kg en équivalent acide oxolinique TABLEAU IV
# [3] = Plasma levels after intramuscular injection in the rat; type: in vivo
# Procedure: c/ Détermination des taux plasmatiques après injection par voie intramusculaire chez le rat
# Dose administrée : 20 mg/kg en équivalent acide oxolinique TABLEAU V
# [4] = Presence of the active principle in tissues after intramuscular injection in the rat; type: in vivo; settings: i.m., 20 mg/kg en équivalent acide oxolinique
# Procedure: d/ Détermination de la présence du principe actif dans les tissus après injection par voie intramusculaire chez le rat
# Dose administrée : 20 mg/kg en équivalent acide oxolinique TABLEAU VI
# [5] = Solubility in water and in usual solvents; settings: qualitative statement
# [6] = Hydrolysis kinetics at room temperature; type: physicochemical
# Text: Ainsi par exemple, l'étude cinétique à température ambiante de l'hydrolyse du composé JL 93V (stable en milieu faiblement acide et en milieu neutre) montre qu'il y a libération d'environ 50 % du principe actif (acide oxolinique) après 24 heures d'hydrolyse en milieu hydroxyde de sodium 0,001 M et coupure immédiate de la liaison ester en milieu hydroxyde de sodium 0,1 M. Cette liaison ester, tout comme d'ailleurs la liaison thioester ou amide, apparaît donc comme étant suffisamment labile par hydrolyse pour libérer le principe actif dans l'organisme.
# [7] = Acute toxicity, lethal dose 50 in the mouse; settings: in vivo, souris, read-out: DL 50 (the source's name)
# Procedure: La toxicité des composés selon l'invention a également été étudiée par la mesure de la dose léthale 50 (DL 50) chez la souris et ils se sont révélés être satisfaisants sur ce plan. A titre d'exemple, on notera que pour le composé JL 93V, la DL 50 (souris; voie intraveineuse) est de 240 mg/kg et que la DL 50 (souris; voie orale) est de 1120 mg/kg.
compound,measurement,setting,value
"CCn1cc(C(=O)O)c(=O)c2cc3c(cc21)OCO3 [Acide oxolinique, acide oxolinique, reference compound]",concentration at 0.5 h,"[1]; chien, i.m., 15 mg/kg en équivalent acide oxolinique, 0,5 h, read-out: Taux plasmatiques",6060 ng/mL
same,concentration at 1 h,"[1]; chien, i.m., 15 mg/kg en équivalent acide oxolinique, 1 h, read-out: Taux plasmatiques",6550 ng/mL
same,concentration at 2 h,"[1]; chien, i.m., 15 mg/kg en équivalent acide oxolinique, 2 h, read-out: Taux plasmatiques",5460 ng/mL
same,concentration at 4 h,"[1]; chien, i.m., 15 mg/kg en équivalent acide oxolinique, 4 h, read-out: Taux plasmatiques",3030 ng/mL
same,concentration at 6 h,"[1]; chien, i.m., 15 mg/kg en équivalent acide oxolinique, 6 h, read-out: Taux plasmatiques",2470 ng/mL
same,concentration at 12 h,"[1]; chien, i.m., 15 mg/kg en équivalent acide oxolinique, 12 h, read-out: Taux plasmatiques",1430 ng/mL
same,concentration at 24 h,"[1]; chien, i.m., 15 mg/kg en équivalent acide oxolinique, 24 h, read-out: Taux plasmatiques",980 ng/mL
same,concentration at 0.5 h,"[2]; chien, i.v., 15 mg/kg en équivalent acide oxolinique, 0,5 h, read-out: Taux plasmatiques",36800 ng/mL
same,concentration at 1 h,"[2]; chien, i.v., 15 mg/kg en équivalent acide oxolinique, 1 h, read-out: Taux plasmatiques",29800 ng/mL
same,concentration at 2 h,"[2]; chien, i.v., 15 mg/kg en équivalent acide oxolinique, 2 h, read-out: Taux plasmatiques",22300 ng/mL
same,concentration at 6 h,"[2]; chien, i.v., 15 mg/kg en équivalent acide oxolinique, 6 h, read-out: Taux plasmatiques",8890 ng/mL
same,concentration at 8 h,"[2]; chien, i.v., 15 mg/kg en équivalent acide oxolinique, 8 h, read-out: Taux plasmatiques",5650 ng/mL
same,concentration at 10 h,"[2]; chien, i.v., 15 mg/kg en équivalent acide oxolinique, 10 h, read-out: Taux plasmatiques",3590 ng/mL
same,concentration at 24 h,"[2]; chien, i.v., 15 mg/kg en équivalent acide oxolinique, 24 h, read-out: Taux plasmatiques",150 ng/mL
same,Taux plasmatiques,"[3]; i.m., 20 mg/kg en équivalent acide oxolinique, 6 h",nul
same,Taux plasmatiques,"[3]; i.m., 20 mg/kg en équivalent acide oxolinique, 24 h",nul
same,concentration at 1 h,"[3]; in vivo, im, 20 mg/kg en équivalent acide oxolinique, 1 h, read-out: Taux plasmatiques",785 ng/mL
same,concentration at 3 h,"[3]; in vivo, im, 20 mg/kg en équivalent acide oxolinique, 3 h, read-out: Taux plasmatiques",225 ng/mL
same,"Présence dans les tissus (foie, poumons, reins, muscles)",[4]; 1 h,nulle
same,"Présence dans les tissus (foie, poumons, reins, muscles)",[4]; 3 h,nulle
same,"Présence dans les tissus (foie, poumons, reins, muscles)",[4]; 6 h,nulle
same,"Présence dans les tissus (foie, poumons, reins, muscles)",[4]; 24 h,nulle
same,solubilité dans l'eau ou les solvants organiques habituellement utilisés en galénique,[5],relativement peu soluble
CCOCCOCCOC(=O)c1cn(CC)c2cc3c(cc2c1=O)OCO3 [JL 93V],degraded at 24 h,"[6]; 0.001 m naoh, room temperature, after 24 heures of hydrolysis in hydroxyde de sodium 0,001 M, read-out: libération du principe actif (acide oxolinique)",~50%
same,stabilité,[6]; milieu faiblement acide and milieu neutre,stable
same,coupure de la liaison ester,"[6]; room temperature, hydroxyde de sodium 0,1 M",immédiate
same,concentration at 0.5 h,[1]; 15 mg/kg,7250 ng/mL
same,concentration at 1 h,[1]; 15 mg/kg,16100 ng/mL
same,concentration at 2 h,[1]; 15 mg/kg,15600 ng/mL
same,concentration at 4 h,[1]; 15 mg/kg,10800 ng/mL
same,concentration at 6 h,[1]; 15 mg/kg,6080 ng/mL
same,concentration at 12 h,[1]; 15 mg/kg,2310 ng/mL
same,concentration at 24 h,[1]; 15 mg/kg,450 ng/mL
same,aire sous la courbe (taux en fonction du temps),[1]; 15 mg/kg,plus importante
same,concentration at 0.5 h,[2]; 15 mg/kg,33600 ng/mL
same,concentration at 1 h,[2]; 15 mg/kg,30200 ng/mL
same,concentration at 2 h,[2]; 15 mg/kg,23400 ng/mL
same,concentration at 6 h,[2]; 15 mg/kg,10900 ng/mL
same,concentration at 8 h,[2]; 15 mg/kg,8230 ng/mL
same,concentration at 10 h,[2]; 15 mg/kg,6350 ng/mL
same,concentration at 24 h,[2]; 15 mg/kg,1190 ng/mL
same,Taux plasmatiques,"[3]; in vivo, 20 mg/kg",nul
same,aire sous la courbe,"[3]; in vivo, 20 mg/kg",plus importante
same,concentration at 1 h,"[3]; in vivo, im, 20 mg/kg",15700 ng/mL
same,concentration at 3 h,"[3]; in vivo, im, 20 mg/kg",8780 ng/mL
same,concentration at 6 h,"[3]; in vivo, im, 20 mg/kg",3420 ng/mL
same,LD50,"[7]; iv, voie intraveineuse",240 mg/kg
same,LD50,"[7]; po, voie orale",1120 mg/kg
